From US6348483B1, “Use of derivatives of methylene-bis-oxazolidine and compositions obtained thereby” (Air Liquide Sante (International), priority 1998, dated 2002)

Experiments:
Format in all cases: cell-based
[1] = system: Penicillium funiculosum (PF); experiment: Fungicidal finish (SM 022) of pure acrylate house paint; conditions: for Fungicidal finish, colonization rating PF: without stress due to leaching
Protocol: (§1) In separate batches, the test concentrations of the active compounds/products were incorporated into the house paint, and the fungicidal and/or algistatic finish was determined using the stated test methods.
(§2) Incorporation and testing were carried out according to the methods SM 022 and SM 023 below.
This laboratory method was used to determine the resistance of house coatings to fungal attack. For the method, house coatings on standardized paper were used as test substrate, and Aspergillus niger (ATCC 6275) and Penicillium funiculosum (ATCC 36839) were used as test fungi. The experiments were carried out in Petri dishes on dextrose nutrient medium.
50 g of the material to be finished were, in separate batches, mixed with various concentrations of the fungicide to be examined and homogenized for 3-5 min using a basket stirrer.
(§3) Paper carrier materials having the dimensions 90×270 mm (Schleicher & Schüll No. 2589 B/X 24078) were coated with the test material. The paint and/or render samples were coated to a wet-layer thickness of 250 μm by knife coating. […] In the case of renders, the layer thickness depended, as in practice, on the particle size. The coated carrier materials, hereinbelow referred to as test bodies, were subsequently dried in a horizontal position for five days.
(§4) […] The cross section of the container for the watering in the direction of flow was 1000±500 cm^2.
From the pretreated test bodies, sample bodies having a diameter of 5 cm were punched out and sterilized in a Co^60 source using at least 10 kGy.
The Sabouraud dextrose agar, which had solidified in the Petri dish, was inoculated with 0.2 ml of spore suspension (10^7 spores/ml) and plated out using a sterile Drigalski spatula or an offset sterile glass rod.
The pretreated sample bodies were then evenly placed onto the inoculated surface of the nutrient medium using a pair of tweezers, making sure that the entire surface of the sample body was in contact with the surface of the nutrient medium. The sample was subsequently incubated at 30±2° C. for three weeks. For other test germs, the incubation temperature had to be adapted to achieve optimum growth.
After one, two and three weeks, the sample bodies were examined for fungal growth. Evaluation was carried out visually or—if this was required to exclude foreign infections—using a magnifying glass. If the extent of the colonization by foreign organisms observed considerably interfered with the evaluation, the experiment could not be evaluated and was repeated. The evaluation of the samples was based on the following evaluation scale:
00—entire plate free from colonization*
0—zone formation (no colonization around the sample)*
(0)—fungal colonization up to the sample*
1—only the sample edge is colonized*
2—the sample is colonized from the edge inwards (less than 25%)
3—the sample surface is colonized by individual colonies (25-75%)
4—the sample surface is colonized extensively (75% and more, but not the entire surface)
5—the sample surface is colonized completely (100%)
*Note: Samples evaluated as 00, 0, (0) and 1 can be referred to as “being effectively finished against fungal growth”.

Bacteria suspension = experiment: Boko test in water-diluted cutting fluids, bacteria suspension
Protocol: In separate batches, in each case 100 ml of the water-diluted cutting fluid to be preserved were admixed with various concentrations of the preservatives to be examined. The growth control used was in each case an unpreserved sample. Two days after the incorporation of the preservatives, the test batches were infected for the first time using 1 ml of an inoculating solution. The inoculating solution used was a suspension of the germs listed below (cultivated on nutrient media and then adapted to water-diluted cutting fluids). […] [table] The test batches were subsequently inoculated two times a week and plated onto agar plates two times per week, the first smear being carried out immediately prior to the new inoculation. The microbial growth on the smears was assessed after incubation at 25° C. for three days. […] The preservative effect of the individual product concentrations was assessed in a semiquantitative method by the colonization of the individual smears using the classification from − to +to +++. Growth was differentiated according to bacteria, yeasts and moulds. The test was usually carried out for twelve inoculation cycles or interrupted after repeated +++growth. The cutting fluids Shell Dromus BX or Almasol EP from Castrol or Rondocor Kompakt from Consulta were examined as 4% strength by weight emulsions in tap water from the city of Norderstedt. Inoculation was carried out using a suspension of bacteria or fungi or a mixed suspension of bacteria and fungi.

Chlorella fusca (CF) = experiment: Algistatic finish (SM 023) of pure acrylate house paint; design: key to Surface colonization: −: no growth; +: some growth; ++: moderate growth; +++: strong growth
Protocol: as §1, §2
This laboratory method was employed for determining the resistance of house coatings to colonization by algae. For this method, house coatings on standardized paper are used as test substrate and Chlorella fusca is used as test alga. It is furthermore possible to use pure cultures of other algae species of practical relevance.
The experiments were carried out in Petri dishes on agar nutrient media.
50 g of the material to be finished were, in separate batches, mixed with various concentrations of the algicide to be examined and homogenized for 3-5 min using a basket stirrer.
as §3, with “depends,” for “depended,”
as §4
From the pretreated test bodies, three sample bodies having a diameter of 5 cm were punched out and sterilized in a Co^60 source using at least 10 kGy.
Aseptically, the samples were placed onto the algae nutrient media, and the centre of the sample was inoculated with 5 ml of each algae suspension.
The mixture of the algae suspensions was spread on the surface using a Drigalski spatula or an offset sterile glass rod.
During the growth phase at 22±2° C., the coated samples in the Petri dishes were irradiated with light of an intensity of about 1000 Lux (customary fluorescent tubes, type D 67 daylight). A cycle of in each case 12 hours of irradiation and 12 hours of storage in the dark was used.
The colonization of the samples by algae was examined and evaluated after two weeks. Evaluation was carried out visually. The evaluation of the samples was based on the following evaluation scale:
No growth of algae on the test bodies
Formation of an inhibitory zone or growth of algae on the nutrient medium up to the edge of the test bodies
Visible colonization of the test body by algae

[2] = without stress due to 72 hours leaching (so in the source), use concentration 0.5%
[3] = without stress due to 72 hours leaching (so in the source), use concentration 1.0%
[4] = without stress due to 72 hours leaching (so in the source), use concentration 2.0%
[5] = without stress due to leaching, use concentration 0.5%
[6] = without stress due to leaching, use concentration 1.0%
[7] = without stress due to leaching, use concentration 2.0%

SMILES: CC1CN(CN2COC(C)C2)CO1 (stereo not drawn) [Mar 71, 3,3′-methylenebis-(5-methyloxazolidine)]
- Fungicidal activity (in words), PF ([1]; house paint test): no fungicidal activity in practice
- Fungicidal finish, colonization rating PF ([1]; use conc. 0.5% W/W, 1. week): 5 (the sample surface is colonized completely (100%))
- Fungicidal finish, colonization rating PF ([1]; use conc. 0.5% W/W, 2. week): 5 (the sample surface is colonized completely (100%))
- Fungicidal finish, colonization rating PF ([1]; use conc. 1.0% W/W, 1. week): 5 (the sample surface is colonized completely (100%))
- Fungicidal finish, colonization rating PF ([1]; use conc. 1.0% W/W, 2. week): 5 (the sample surface is colonized completely (100%))
- Fungicidal finish, colonization rating PF ([1]; use conc. 2.0% W/W, 1. week): 3 (the sample surface is colonized by individual colonies (25%-75%))
- Fungicidal finish, colonization rating PF ([1]; use conc. 2.0% W/W, 2. week): 4 (the sample surface is colonized extensively (75% and more, but not the entire surface))
- Number of inoculation cycles passed on inoculation with Bacteria suspension (Bacteria suspension; Cutting fluid Almasol EP, use concentration 0.05% by weight): >12
- Number of inoculation cycles passed on inoculation with Bacteria suspension (Bacteria suspension; Cutting fluid Almasol EP, use concentration 0.10% by weight): >12
- Number of inoculation cycles passed on inoculation with Bacteria suspension (Bacteria suspension; Cutting fluid Almasol EP, use concentration 0.15% by weight): >12
- Number of inoculation cycles passed on inoculation with Bacteria suspension (Bacteria suspension; Cutting fluid Rondocor Kompakt, use concentration 0.05% by weight): >12
- Number of inoculation cycles passed on inoculation with Bacteria suspension (Bacteria suspension; Cutting fluid Rondocor Kompakt, use concentration 0.10% by weight): >12
- Number of inoculation cycles passed on inoculation with Bacteria suspension (Bacteria suspension; Cutting fluid Rondocor Kompakt, use concentration 0.15% by weight): >12
- Number of inoculation cycles passed on inoculation with Bacteria suspension (Bacteria suspension; Cutting fluid Shell Dromus BX, use concentration 0.05% by weight): >12
- Number of inoculation cycles passed on inoculation with Bacteria suspension (Bacteria suspension; Cutting fluid Shell Dromus BX, use concentration 0.10% by weight): >12
- Number of inoculation cycles passed on inoculation with Bacteria suspension (Bacteria suspension; Cutting fluid Shell Dromus BX, use concentration 0.15% by weight): >12
- Algicidal action (in words) (Chlorella fusca (CF); with stress due to leaching): little algicidal action in practice
- Inhibitory zone (Chlorella fusca (CF); [2]): 0 mm
- Surface colonization (Chlorella fusca (CF); [2]): ++
- Inhibitory zone (Chlorella fusca (CF); [3]): 0 mm
- Surface colonization (Chlorella fusca (CF); [3]): ++
- Inhibitory zone (Chlorella fusca (CF); [4]): 0 mm
- Surface colonization (Chlorella fusca (CF); [4]): +++
- Inhibitory zone (Chlorella fusca (CF); [5]): 12 mm
- Surface colonization (Chlorella fusca (CF); [5]): −
- Inhibitory zone (Chlorella fusca (CF); [6]): >18 mm
- Surface colonization (Chlorella fusca (CF); [6]): −
- Inhibitory zone (Chlorella fusca (CF); [7]): >18 mm
- Surface colonization (Chlorella fusca (CF); [7]): −
- Algicidal activity (in words) (Chlorella fusca (CF); without stress due to leaching, use concentration from 0.5 to 2% by weight): good algicidal activity
